Assay results published in patent US6737383B1, “Herbicidal oxadiazolidines” (priority 1999, dated 2004).

Key:
blackgrass = experiment: Test B pre/postemergence blackgrass; format: in vivo, Alopecurus myosuroides
Procedure, shortened: (§1)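 Herbicidal effect was estimated by eye on a ten-point control scale after plants spent twelve to sixteen days in a greenhouse following soil or foliar treatment. Foliar sprays targeted plants at one to four leaves; all doses were formulated in a non-phytotoxic solvent with surfactant.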

surinam grass = experiment: Test B pre/postemergence surinam grass; format: in vivo, Brachiaria decumbens
Procedure, shortened: as §1

cocklebur = experiment: Test B pre/postemergence cocklebur; format: in vivo, Xanthium strumarium
Procedure, shortened: as §1

corn = experiment: Test B pre/postemergence corn; format: in vivo, Zea mays
Procedure, shortened: as §1

crabgrass = experiment: Test B pre/postemergence crabgrass; format: in vivo, Digitaria sanguinalis
Procedure, shortened: as §1

giant foxtail = experiment: Test B pre/postemergence giant foxtail; format: in vivo, Setaria faberii
Procedure, shortened: as §1

pigweed = experiment: Test B pre/postemergence pigweed; format: in vivo, Amaranthus retroflexus; conditions: for Plant response rating, Redroot pigweed: Postemergence
Procedure, shortened: as §1

rape = experiment: Test B pre/postemergence rape; format: in vivo, Brassica napus
Procedure, shortened: as §1

soybean = experiment: Test B pre/postemergence soybean; format: in vivo, Glycine max; conditions: for Plant response rating, Soybean: Postemergence
Procedure, shortened: as §1

sugar beet = experiment: Test B pre/postemergence sugar beet; format: in vivo, Beta vulgaris; conditions: for Plant response rating, Sugarbeets: Postemergence
Procedure, shortened: as §1

wheat = experiment: Test B pre/postemergence wheat; format: in vivo, Triticum aestivum; conditions: for Plant response rating, Wheat: Postemergence
Procedure, shortened: as §1

purple nutsedge = experiment: Test B pre/postemergence purple nutsedge; format: in vivo, Cyperus rotundus
Procedure, shortened: as §1

rice = experiment: Test B flood test rice; format: in vivo, Oryza sativa
Procedure, shortened: (§2)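 Flood test on plants grown to the 2-leaf stage; treated plants kept in greenhouse twelve to sixteen days, then visually rated against controls on a 0 (no effect) to 10 (complete control) scale.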

smallflower flatsedge = experiment: Test B flood test smallflower flatsedge; format: in vivo, Cyperus difformis
Procedure, shortened: as §2

duck salad = experiment: Test B flood test duck salad; format: in vivo, Heteranthera limosa
Procedure, shortened: as §2

bamyardgrass = experiment: Test B flood test barnyardgrass; format: in vivo, Echinochloa crus-galli
Procedure, shortened: as §2

[1] = Postemergence, Rate 62 g/ha, scale of 0 to 10, 0 is no effect, 10 is complete control
[2] = Postemergence, Rate 125 g/ha, scale 0 to 10, 0 is no effect, 10 is complete control
[3] = Postemergence, Rate 500 g/ha, scale of 0 to 10 where 0 is no effect and 10 is complete control
[4] = Preemergence, Rate 62 g/ha, scale 0 to 10 (0 no effect, 10 complete control)
[5] = Preemergence, Rate 125 g/ha, scale 0 to 10, 0 is no effect, 10 is complete control
[6] = Preemergence, Rate 500 g/ha, scale of 0 to 10 where 0 is no effect and 10 is complete control
[7] = Rate 250 g/ha, Postemergence, scale of 0 to 10 where 0 is no effect and 10 is complete control
[8] = Rate 500 g/ha, scale of 0 to 10 where 0 is no effect and 10 is complete control
[9] = Rate 250 g/ha, scale of 0 to 10 where 0 is no effect and 10 is complete control
[10] = Rate 62 g/ha, flood test species, Pre-emergence, visual evaluation after twelve to sixteen days
[11] = Rate 125 g/ha, under heading Pre-emergence, flood test species, visual evaluation after twelve to sixteen days
[12] = Rate 250 g/ha, Pre-emergence (flood test species), scale 0 to 10, 0 is no effect, 10 is complete control
[13] = Rate 500 g/ha, Pre-emergence section of Table B, 0 to 10 scale (0 no effect, 10 complete control)

## CC(C)N(C(=O)n1oc(=O)n(C(C)C(=O)c2ccccc2)c1=O)c1ccccc1 (stereo not shown) [Compound 570]
blackgrass; [1]
  Blackgrass plant response rating: 0
blackgrass; [2]
  Blackgrass plant response rating: 0
blackgrass; [3]
  Plant response rating, Blackgrass: 0
blackgrass; [4]
  Blackgrass plant response rating: 0
blackgrass; [5]
  Blackgrass plant response rating: 0
blackgrass; Preemergence, Rate 250 g/ha
  Blackgrass plant response rating (0 to 10 scale): 0
blackgrass; [6]
  Blackgrass plant response rating: 0
blackgrass; [7]
  Plant response rating, Blackgrass: 0
Surinam grass; [1]
  B. signalgrass plant response rating: 0
Surinam grass; [2]
  B. signalgrass plant response rating: 0
Surinam grass; [3]
  Plant response rating, B. signalgrass: 0
Surinam grass; [4]
  B. signalgrass plant response rating: 0
Surinam grass; [5]
  B. signalgrass plant response rating: 0
Surinam grass; Preemergence, Rate 250 g/ha
  B. signalgrass plant response rating (0 to 10 scale, 0 is no effect, 10 is complete control): 0
Surinam grass; [6]
  B. signalgrass plant response rating: 0
Surinam grass; [7]
  Plant response rating, B. signalgrass: 0
cocklebur; [1]
  Cocklebur plant response rating: 0
cocklebur; [2]
  Cocklebur plant response rating: 0
cocklebur; [3]
  Plant response rating, Cocklebur: 0
cocklebur; [4]
  Cocklebur plant response rating: 0
cocklebur; [5]
  Cocklebur plant response rating: 0
cocklebur; Preemergence, Rate 250 g/ha
  Cocklebur plant response rating (0 to 10 scale): 0
cocklebur; [6]
  Cocklebur plant response rating: 0
cocklebur; [7]
  Plant response rating, Cocklebur: 0
corn; [1]
  Corn plant response rating: 0
corn; [2]
  Corn plant response rating: 0
corn; [3]
  Plant response rating, Corn: 0
corn; [4]
  Corn plant response rating: 0
corn; [5]
  Corn plant response rating: 0
corn; Preemergence, Rate 250 g/ha
  Corn plant response rating (0 to 10 scale): 0
corn; [6]
  Corn plant response rating: 0
corn; [7]
  Plant response rating, Corn: 0
crabgrass; [1]
  Crabgrass plant response rating: 0
crabgrass; [2]
  Crabgrass plant response rating: 0
crabgrass; [3]
  Plant response rating, Crabgrass: 0
crabgrass; [4]
  Crabgrass plant response rating: 9
crabgrass; [5]
  Crabgrass plant response rating: 9
crabgrass; Preemergence, Rate 250 g/ha
  Crabgrass plant response rating (0 to 10 scale): 9
crabgrass; [6]
  Crabgrass plant response rating: 10
crabgrass; [7]
  Plant response rating, Crabgrass: 0
Giant foxtail; [1]
  Giant foxtail plant response rating: 0
Giant foxtail; [2]
  Giant foxtail plant response rating: 0
Giant foxtail; [3]
  Plant response rating, Giant foxtail: 0
Giant foxtail; [4]
  Giant foxtail plant response rating: 0
Giant foxtail; [5]
  Giant foxtail plant response rating: 0
Giant foxtail; Preemergence, Rate 250 g/ha
  Giant foxtail plant response rating (0 to 10 scale): 9
Giant foxtail; [6]
  Giant foxtail plant response rating: 9
Giant foxtail; [7]
  Plant response rating, Giant foxtail: 0
pigweed; [8]
  Plant response rating, Redroot pigweed: 0
pigweed; [4]
  Redroot pigweed plant response rating: 0
pigweed; [5]
  Redroot pigweed plant response rating: 0
pigweed; Preemergence, Rate 250 g/ha
  Redroot pigweed plant response rating (0 to 10 scale): 0
pigweed; [6]
  Redroot pigweed plant response rating: 8
pigweed; [9]
  Plant response rating, Redroot pigweed: 0
rape; [1]
  Rape plant response rating: 0
rape; [2]
  Rape plant response rating: 0
rape; [3]
  Plant response rating, Rape: 0
rape; [4]
  Rape plant response rating: 0
rape; [5]
  Rape plant response rating: 0
rape; Preemergence, Rate 250 g/ha
  Rape plant response rating (0 to 10 scale): 0
rape; [6]
  Rape plant response rating: 0
rape; [7]
  Plant response rating, Rape: 0
soybean; [8]
  Plant response rating, Soybean: 3
soybean; [4]
  Soybean plant response rating: 0
soybean; [5]
  Soybean plant response rating: 0
soybean; Preemergence, Rate 250 g/ha
  Soybean plant response rating (0 to 10 scale): 0
soybean; [6]
  Soybean plant response rating: 0
soybean; [9]
  Plant response rating, Soybean: 3
Sugar beet; [8]
  Plant response rating, Sugarbeets: 0
Sugar beet; [4]
  Sugarbeets plant response rating: 0
Sugar beet; [5]
  Sugarbeets plant response rating: 0
Sugar beet; Preemergence, Rate 250 g/ha
  Sugarbeets plant response rating (0 to 10 scale): 0
Sugar beet; [6]
  Sugarbeets plant response rating: 2
Sugar beet; [9]
  Plant response rating, Sugarbeets: 0
wheat; [8]
  Plant response rating, Wheat: 0
wheat; [4]
  Wheat plant response rating: 0
wheat; [5]
  Wheat plant response rating: 0
wheat; Preemergence, Rate 250 g/ha
  Wheat plant response rating (0 to 10 scale): 0
wheat; [6]
  Wheat plant response rating: 0
wheat; [9]
  Plant response rating, Wheat: 0
Purple nutsedge; [1]
  Nutsedge plant response rating: 0
Purple nutsedge; [2]
  Nutsedge plant response rating: 0
Purple nutsedge; [3]
  Plant response rating, Nutsedge: 0
Purple nutsedge; [4]
  Nutsedge plant response rating: 0
Purple nutsedge; [5]
  Nutsedge plant response rating: 0
Purple nutsedge; [6]
  Nutsedge plant response rating: 0
Purple nutsedge; [7]
  Plant response rating, Nutsedge: 0
rice; [10]
  Plant response rating, Rice (0 to 10 scale, 0 is no effect, 10 is complete control): 0
rice; [11]
  Rice plant response rating (0 to 10 scale, 0 is no effect, 10 is complete control): 0
rice; [12]
  Rice plant response rating: 0
rice; [13]
  Rice plant response rating: 0
Smallflower flatsedge; [10]
  Plant response rating, S. Flatsedge (0 to 10 scale, 0 is no effect, 10 is complete control): 0
Smallflower flatsedge; [11]
  S. Flatsedge plant response rating (0 to 10 scale, 0 is no effect, 10 is complete control): 0
Smallflower flatsedge; [12]
  S. Flatsedge plant response rating: 0
Smallflower flatsedge; [13]
  S. Flatsedge plant response rating: 0
Duck salad; [10]
  Plant response rating, Ducksalad (0 to 10 scale, 0 is no effect, 10 is complete control): 0
Duck salad; [11]
  Ducksalad plant response rating (0 to 10 scale, 0 is no effect, 10 is complete control): 0
Duck salad; [12]
  Ducksalad plant response rating: 0
Duck salad; [13]
  Ducksalad plant response rating: 0
bamyardgrass; [10]
  Plant response rating, Barnyardgrass (0 to 10 scale, 0 is no effect, 10 is complete control): 0
bamyardgrass; [11]
  Barnyardgrass plant response rating (0 to 10 scale, 0 is no effect, 10 is complete control): 0
bamyardgrass; [12]
  Barnyardgrass plant response rating: 0
bamyardgrass; [13]
  Barnyardgrass plant response rating: 0
